This is an account of results in US20130060013A1, “Compounds useful for treating neurodegenerative disorders” (SATORI PHARMACEUTICALS, INC., priority 2011, published 2013).

In general, IC50 refers to the point on the concentration scale where inhibition reaches its midpoint.

Where only a bound is given, the exact number is not on record here.

Format in all cases: cell-based
Holding throughout (conditions): Homo sapiens, compound 5 hours at 37° C., 1% DMSO, percent vehicle fit to 4 parameter curve

The subject of experiment [1] is Aβ-38. Kind of experiment: Aβ-38 level in conditioned media of 2B7 cells (MSD 3-PLEX ELISA). In outline: (§1)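 2B7 cells at confluence were exposed to compound dilutions in medium (1% DMSO final) for 5 h at 37 °C. Conditioned medium, diluted 1:1 in blocking buffer, was assayed by MSD 3-plex electrochemiluminescence ELISA, and levels were read from a seven-point standard curve. IC50 came from a 4-parameter fit of percent-of-vehicle values.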
In general terms: In an ELISA, binding on a coated surface is turned into a signal by an enzyme label.

Experiment [2] relates to Aβ-40. Kind of experiment: Aβ-40 level in conditioned media of 2B7 cells (MSD 3-PLEX ELISA). The procedure:
Assays were conducted to determine the ability of a Compound of Formula I to modulate […], and Aβ-38.
Human (6E10) Ab 3-PLEX elisa kits were purchased from Meso Scale Discovery Labs, 9328 Gaither Road, Gaithersburg, Md. 20877 (Catalog Number K15148E-3). Plates with capture antibodies were blocked for 1-2 hours at room temperature with 150 μL of the manufactures blocking reagent.
Cultured 2B7 cells in 96 well plate with 250 uL of media per well until confluent;
Prepared serial dilutions of compounds in DMSO at 100× the final desired concentration;
Washed wells with 2B7 cells 1× with 250 uL of media;
Diluted DMSO stocks 1:100 into media:
Added 250 μL of media containing compounds (1% DMSO) to wells with 2B7 cells for 5 hours at 37° C.
Diluted conditioned media: 1 part media with 1% DMSO and 1 part blocking buffer;
150 μL of the 250 μL of conditioned media were used.
Standard Curve Sample Prep:
Prepared per manufacturer's protocol (see above)
Seven point standard curve samples were prepared that contained Aβ-42, Aβ-40, and Aβ-38. The highest concentration of Aβ-42 and Aβ-38 was 3,000 pg/mL and the highest concentration of Aβ-40 was 10,000 pg/mL. Subsequent serial dilutions were 1:3 and the final composition of each sample was 1 part blocking buffer and 1 part cell medium containing 1% DMSO.
Overnight Sample Incubation:
Blocked plates are washed 5× with MSD wash buffer with a plate washer
25 uL of detection antibody and blocker G reagent in MSD blocking solution is added
25 uL of samples (1 part conditioned media containing 1% DMSO and 1 part MSD blocking buffer) are then added.
plates are incubated overnight at 4 degrees C. or 2 hours at room temp
Wash wells 5× with MSD wash buffer
Added 150 μL 2×MSD read buffer
A-Beta peptide levels for each peptide are calculated from the standard curve using the MSD software provided with the MSD 2400 Imager. Percent vehicle values for each compound dosage were then calculated and fit to a 4 parameter curve generating IC50 values.

In experiment [3] the test system is Aβ-42. Kind of experiment: Aβ-42 level in conditioned media of 2B7 cells (MSD 3-PLEX ELISA). A digest of the protocol: as §1

Turning to `CCO[C@@H]([C@H]1C[C@@H](C)[C@H]2[C@H](O1)[C@H](O)[C@@]1(C)[C@@H]3CC[C@H]4C(C)(C)[C@@H](O[C@H]5CN(C6(C)COC6)CCO5)CCC45C[C@@]35CC[C@]21C)C(C)(C)O` (stereo partly drawn), the IC50 is below 1000 nM in experiment [1], 1000 to 10000 nM in experiment [2] and below 1000 nM in experiment [3].
As to `CO[C@@H]([C@H]1C[C@@H](C)[C@H]2[C@H](O1)[C@H](O)[C@@]1(C)[C@@H]3CC[C@H]4C(C)(C)[C@@H](O[C@H]5CN(C6CNC6)CCO5)CCC45C[C@@]35CC[C@]21C)C(C)(C)O` (stereo partly drawn), the 50% inhibitory concentration (IC50) in experiment [1] is below 1000 nM; in experiment [2], 1000 to 10000 nM; in experiment [3], below 1000 nM.
For `CO[C@@H]([C@H]1C[C@@H](C)[C@H]2[C@H](O1)[C@H](O)[C@@]1(C)[C@@H]3CC[C@H]4C(C)(C)[C@@H](OC5CN(C6CN(C)C6)CCO5)CCC45C[C@@]35CC[C@]21C)C(C)(C)O` (stereo partly drawn), the IC50 in experiment [1] is below 1000 nM; in experiment [2], 1000 to 10000 nM; in experiment [3], below 1000 nM.
On to `CO[C@@H]([C@H]1C[C@@H](C)[C@H]2[C@H](O1)[C@H](O)[C@@]1(C)[C@@H]3CC[C@H]4C(C)(C)[C@@H](OC5CN(C6CCN(C)C6=O)CCO5)CCC45C[C@@]35CC[C@]21C)C(C)(C)O` (stereo partly drawn), for which the IC50 in experiment [1] is below 1000 nM; in experiment [2] it was above 10000 nM; in experiment [3], below 1000 nM.
As to `CCO[C@@H]([C@H]1C[C@@H](C)[C@H]2[C@H](O1)[C@H](O)[C@@]1(C)[C@@H]3CC[C@H]4C(C)(C)[C@@H](O[C@H]5CN(CC(=O)N6CCC6)CCO5)CCC45C[C@@]35CC[C@]21C)C(C)(C)O` (stereo partly drawn), the IC50 was below 1000 nM in experiment [1], 1000 to 10000 nM in experiment [2] and below 1000 nM in experiment [3].
`CCO[C@@H]([C@H]1C[C@@H](C)[C@H]2[C@H](O1)[C@H](O)[C@@]1(C)[C@@H]3CC[C@H]4C(C)(C)[C@@H](O[C@H]5CN([C@@H](C)C(=O)N6CCC6)CCO5)CCC45C[C@@]35CC[C@]21C)C(C)(C)O` (stereo partly drawn): the concentration for half-maximal inhibition (IC50) in experiment [1] was 1000 to 10000 nM; in experiment [2] it was above 10000 nM; in experiment [3] it was below 1000 nM.
For `CCO[C@@H]([C@H]1C[C@@H](C)[C@H]2[C@H](O1)[C@H](O)[C@@]1(C)[C@@H]3CC[C@H]4C(C)(C)[C@@H](O[C@H]5CN(CC(=O)N(C)C)CCO5)CCC45C[C@@]35CC[C@]21C)C(C)(C)O` (stereo partly drawn), the figures for the IC50 in experiment [1], in experiment [2] and in experiment [3] were below 1000 nM, 1000 to 10000 nM and below 1000 nM, respectively.
With `CCO[C@@H]([C@H]1C[C@@H](C)[C@H]2[C@H](O1)[C@H](O)[C@@]1(C)[C@@H]3CC[C@H]4C(C)(C)[C@@H](OC(=O)[C@H]5COCCN5CCOC)CCC45C[C@@]35CC[C@]21C)C(C)(C)O` (stereo partly drawn), the IC50 is below 1000 nM in experiment [1], 1000 to 10000 nM in experiment [2] and below 1000 nM in experiment [3].
Consider `CCO[C@@H]([C@H]1C[C@@H](C)[C@H]2[C@H](O1)[C@H](O)[C@@]1(C)[C@@H]3CC[C@H]4C(C)(C)[C@@H](OC(=O)[C@H]5CCCN5)CCC45C[C@@]35CC[C@]21C)C(C)(C)O` (stereo partly drawn), for which the IC50 was below 1000 nM in experiment [1], 1000 to 10000 nM in experiment [2] and below 1000 nM in experiment [3].
For `CCO[C@@H]([C@H]1C[C@@H](C)[C@H]2[C@H](O1)[C@H](O)[C@@]1(C)[C@@H]3CC[C@H]4C(C)(C)[C@@H](OC(=O)C5CN(CCOC)C5)CCC45C[C@@]35CC[C@]21C)C(C)(C)O` (stereo partly drawn), the IC50 is below 1000 nM in experiment [1], 1000 to 10000 nM in experiment [2] and below 1000 nM in experiment [3].
On to `CCO[C@@H]([C@H]1C[C@@H](C)[C@H]2[C@H](O1)[C@H](O)[C@@]1(C)[C@@H]3CC[C@H]4C(C)(C)[C@@H](OC(=O)[C@H]5CCCN5C)CCC45C[C@@]35CC[C@]21C)C(C)(C)O` (stereo partly drawn), for which the IC50 is below 1000 nM in experiment [1], 1000 to 10000 nM in experiment [2] and below 1000 nM in experiment [3].
In the case of `CCO[C@@H]([C@H]1C[C@@H](C)[C@H]2[C@H](O1)[C@H](O)[C@@]1(C)[C@@H]3CC[C@H]4C(C)(C)[C@@H](OC(=O)[C@@H]5COCCN5C(C)C)CCC45C[C@@]35CC[C@]21C)C(C)(C)O` (stereo partly drawn), the results for the IC50 in experiment [1], in experiment [2] and in experiment [3] were 1000 to 10000 nM, above 10000 nM and below 1000 nM, respectively.
The like results for `CCO[C@@H]([C@H]1C[C@@H](C)[C@H]2[C@H](O1)[C@H](O)[C@@]1(C)[C@@H]3CC[C@H]4C(C)(C)[C@@H](OC(=O)[C@@H]5C[C@@H](O)CN5)CCC45C[C@@]35CC[C@]21C)C(C)(C)O` (stereo partly drawn) were, in that order, below 1000 nM, 1000 to 10000 nM and below 1000 nM.
The like results for `CCO[C@@H]([C@H]1C[C@@H](C)[C@H]2[C@H](O1)[C@H](O)[C@@]1(C)[C@@H]3CC[C@H]4C(C)(C)[C@@H](OC(=O)[C@@H]5C[C@@H](O)CN5C)CCC45C[C@@]35CC[C@]21C)C(C)(C)O` (stereo partly drawn) were, in that order, below 1000 nM, 1000 to 10000 nM and below 1000 nM.
For `CCO[C@@H]([C@H]1C[C@@H](C)[C@H]2[C@H](O1)[C@H](O)[C@@]1(C)[C@@H]3CC[C@H]4C(C)(C)[C@@H](O[C@H]5CN(CCO)CCO5)CCC45C[C@@]35CC[C@]21C)C(C)(C)O` (stereo partly drawn), in that order: below 1000 nM, 1000 to 10000 nM and below 1000 nM.
For the compound `CCO[C@@H]([C@H]1C[C@@H](C)[C@H]2[C@H](O1)[C@H](O)[C@@]1(C)[C@@H]3CC[C@H]4C(C)(C)[C@@H](OC(=O)C5CNC5)CCC45C[C@@]35CC[C@]21C)C(C)(C)O` (stereo partly drawn), the IC50 was below 1000 nM in experiment [1], 1000 to 10000 nM in experiment [2] and below 1000 nM in experiment [3].
In the case of `CCO[C@@H]([C@H]1C[C@@H](C)[C@H]2[C@H](O1)[C@H](O)[C@@]1(C)[C@@H]3CC[C@H]4C(C)(C)C(O[C@H]5CN(CCNC(=O)CCOCCOCCNC(=O)CCCCC6SC[C@@H]7NC(=O)N[C@H]67)CCO5)CC[C@@]45CC35CC[C@]21C)C(C)(C)O` (stereo partly drawn), the IC50 was 1000 to 10000 nM in experiment [1], above 10000 nM in experiment [2] and 1000 to 10000 nM in experiment [3].
In the case of `CCO[C@@H]([C@H]1C[C@@H](C)[C@H]2[C@H](O1)[C@H](O)[C@@]1(C)[C@@H]3CC[C@H]4C(C)(C)C(O[C@H]5CN(CCCNCCCOCCOCCOCCCNC(=O)CCCCC6SC[C@@H]7NC(=O)N[C@H]67)CCO5)CC[C@@]45CC35CC[C@]21C)C(C)(C)O` (stereo partly drawn), the IC50 in experiment [1] is below 1000 nM; in experiment [2], 1000 to 10000 nM; in experiment [3], below 1000 nM.
As for `CCO[C@@H]([C@H]1C[C@@H](C)[C@H]2[C@H](O1)[C@H](O)[C@@]1(C)[C@@H]3CC[C@H]4C(C)(C)C(O[C@H]5CN(CCNC(=O)CCC6(C)N=N6)CCO5)CC[C@@]45CC35CC[C@]21C)C(C)(C)O` (stereo partly drawn), the IC50 in experiment [1] is below 1000 nM; in experiment [2], above 10000 nM; in experiment [3], below 1000 nM.
As for `CCO[C@@H]([C@H]1C[C@@H](C)[C@H]2[C@H](O1)[C@H](O)[C@@]1(C)[C@@H]3CC[C@H]4C(C)(C)C(O[C@H]5CN(CCNCCCOCCOCCOCCCNC(=O)CCCCC6SC[C@@H]7NC(=O)N[C@H]67)CCO5)CC[C@@]45CC35CC[C@]21C)C(C)(C)O` (stereo partly drawn), the IC50 in experiment [1] was below 1000 nM; in experiment [2], 1000 to 10000 nM; in experiment [3] it was below 1000 nM.
